Experimental data published in patent US10266566B2, “Protease-resistant peptide ligands” (North Carolina State University, priority 2013, dated 2019).
Entries after “also recorded” stand apart in the source; their conditions may differ. Where a SMILES comes first, the peptide text is derived from it. Where no end group is shown, it is not given here. [ ]: non-standard residue; d: D form. The star is where a group is joined. Toyopearl = Toyopearl AF-Amino-650M resin to which the C-terminus is tethered; Trp(1-Me) = Cn1cc(C[C@H](N)C(=O)O)c2ccccc21; Phe(4-Me) = Cc1ccc(C[C@H](N)C(=O)O)cc1; Lys(Me2) = CN(C)CCCC[C@H](N)C(=O)O; Cit = NC(=O)NCCC[C@H](N)C(=O)O; For = O=C*

Assays:
[1] = system: trypsin; test: Resistance of peptide ligands to proteolytic digestion: IgG yield after contact with trypsin; type: in vitro ADME; conditions: for IgG Yield 3rd run (after trypsin): after α-chymotrypsin and then trypsin in Tris buffer pH 8.5; for resistance to trypsin (in words): loss of IgG binding capacity after enzyme treatment, FIG. 2
Method: (§1) All resins (35 mg each) were packed in a 30 mm×2.1 mm I.D. Microbore column (0.1 mL) (Alltech-Applied Science, Somerset, Pa., USA) and swollen with 20% v/v methanol. After equilibration with PBS, pH 7.4, three IgG binding tests were performed using a 10 mg/mL solution of hIgG in PBS. Between each binding test, the resin was contacted with a 0.15 mg/mL solution of either trypsin or α-chymotrypsin in Tris HCl buffer, pH 8.5. The chromatographic protocol employed for all five injections was as follows. One hundred microliters of feed sample was loaded onto the column at a flow rate of 0.05 mL/min (87 cm/h). After a washing step with 2 mL of equilibration buffer at a flow rate of 0.2 mL/min (348 cm/h), elution was performed with 4 mL of 0.2M acetate buffer pH 4.0 at a flow rate of 0.4 mL/min (696 cm/h). Finally, the adsorbent was regenerated with 4 mL of 0.85% phosphoric acid. The adsorbents HWRGWV-, HYFKFD-, and HFRRHL-Toyopearl (SEQ ID NOS: 6, 16, 17) resins were used as controls. The effluent was monitored by absorbance at 280 nm.
(§2) Based on the results reported in Table 2, the original sequences HWRGWV, HFRRHL, and HYFKFD (SEQ ID NOS: 1-3), and their variants HWMetCitGWMetV, HFMetCitCitHL, and HYMetFMetK(Met)2FMetD (SEQ ID NOS: 4, 5, 7) were tested for their resistance to enzymatic digestion. The sequences HWMetCitGWMetV (SEQ ID NO: 8), HFMetCitCitHL (SEQ ID NO: 5) were selected as the best variants of their respective original peptides, while HYMetFMetKMet2FMetD (SEQ ID NO: 7) was used as a negative control. […] Each adsorbent was subjected to five consecutive chromatographic runs. First, a solution of pure human polyclonal IgG at 10 mg/mL in PBS was injected to determine IgG yield for each adsorbent prior to contact with any enzyme. All four peptide variants gave a yield above 91% for this initial run. The resin was then contacted with a solution of α-chymotrypsin in Tris buffer pH 8.5 for 10 minutes. The amount of enzyme loaded onto the column was in a mass ratio of 1:100 peptide:enzyme, as done by Verdoliva et al.. After rinsing the resin, a second injection of IgG was then performed to estimate the loss of binding capacity due to the digestion of the peptide ligand by α-chymotrypsin. The resin was then contacted with the second enzyme solution, i.e., trypsin in Tris buffer pH 8.5, at the same peptide:enzyme ratio. A third IgG injection was finally performed to estimate the residual binding capacity of each resin after the second enzyme treatment.

[2] = target: T1, α-chymotrypsin (Bos taurus, UniProt P00766); test: Resistance of peptide ligands to proteolytic digestion: IgG yield after contact with α-chymotrypsin; type: in vitro ADME; conditions: for IgG Yield 2nd run (after α-chymotrypsin): after contact with α-chymotrypsin in Tris buffer pH 8.5 for 10 minutes; for resistance to α-chymotrypsin (in words): loss of IgG binding capacity after enzyme treatment, FIG. 2
T1 construct: purchased Sigma Aldrich
Method: as §1, §2

[3] = system: IgG; test: Purification of IgG (IVIG) from Cohn fraction II+III of human plasma, yield and purity; type: binding
[4] = system: human polyclonal IgG; test: Chromatographic IgG binding test of peptide-Toyopearl adsorbents with pure human polyclonal IgG; conditions: peptide on Toyopearl resin, approx. 0.12 meq/g, 0.1 mL column; ratio of IgG eluted to total IgG loaded
Method: All resins (35 mg each) were packed in a 30 mm×2.1 mm I.D. Microbore column (0.1 mL) (Alltech-Applied Science, Somerset, Pa., USA) and swollen with 20% v/v methanol. After equilibration with PBS, pH 7.4, three IgG binding tests were performed using a 10 mg/mL solution of hIgG in PBS. Between each binding test, the resin was contacted with a 0.15 mg/mL solution of either trypsin or α-chymotrypsin in Tris HCl buffer, pH 8.5. The chromatographic protocol employed for all five injections was as follows. One hundred microliters of feed sample was loaded onto the column at a flow rate of 0.05 mL/min (87 cm/h). […] The effluent was monitored by absorbance at 280 nm.
The amount of IgG in the collected fractions was quantified by HPLC using 1 mL HiTrap Protein G column. The yield of IgG was calculated as the ratio of IgG eluted to total IgG loaded. The purity of IgG in the eluted fractions was determined by sodium dodecyl sulfate polyacrylamide gel electrophoresis (SDS-PAGE) under reducing conditions using NuPAGE® Novex 4-12% Bis-Tris gels in a Xcell SuperLock™ Mini-Cell system (LifeSciences, Carlsbad, Calif., USA). […] The IgG purity was determined by densitometric analysis of Coomassie-stained gels by means of ImageJ 1.32j software (National Institutes of Health, Bethesda, Md., USA). […]

[5] = 0.25M NaCl in PBS binding buffer
[6] = 0.13M NaCl in PBS binding buffer

| Compound | IgG Yield 3rd run (after trypsin) [1] | IgG Yield 2nd run (after α-chymotrypsin) [2] | resistance to trypsin (in words) [1] | resistance to α-chymotrypsin (in words) [2] | other results |
| --- | --- | --- | --- | --- | --- |
| CC(C)[C@H](NC(=O)[C@H](Cc1cn(C=O)c2ccccc12)NC(=O)CNC(=O)[C@H](CCCNC(N)=O)NC(=O)[C@H](Cc1cn(C=O)c2ccccc12)NC(=O)[C@@H](N)Cc1c[nH]cn1)C(=O)O [HWForCitGWForV] (H-HW(For)[Cit]GW(For)V-OH; N-terminus and C-terminus assumed) | 69% | 69% | – | – | – |
| CC(C)[C@H](NC(=O)[C@H](Cc1cn(C)c2ccccc12)NC(=O)CNC(=O)[C@H](CCCNC(=N)N)NC(=O)[C@H](Cc1cn(C)c2ccccc12)NC(=O)[C@@H](N)Cc1c[nH]cn1)C(=O)O [HWMetRGWMetV] (H-H[Trp(1-Me)]RG[Trp(1-Me)]V-OH; N-terminus and C-terminus assumed) | 82% | 91% | – | resistance towards one enzyme only | – |
| COc1ccc(C[C@H](NC(=O)[C@@H](N)Cc2c[nH]cn2)C(=O)N[C@@H](Cc2ccc(C)cc2)C(=O)N[C@@H](CCCCN(C)C)C(=O)N[C@@H](Cc2ccc(C)cc2)C(=O)N[C@@H](CC(=O)O)C(=O)O)cc1 [HYMetFMetKMet2FMetD] (H-HY(Me)[Phe(4-Me)][Lys(Me2)][Phe(4-Me)]D-OH; N-terminus and C-terminus assumed) | 53% | 49% | high resistance to proteolysis | high resistance to proteolysis | – |
| Ac-HWMetCitGWMetV: acetylated version of the variant HWMetCitGWMetV (Ac-H[Trp(1-Me)][Cit]G[Trp(1-Me)]V; not fully specified (C-terminus)) | – | – | – | – | IgG Purity [3, 5]: 92%; IgG yield over the binding buffers ([3]; over 0M, 0.13M, 0.25M NaCl binding buffers): above 90% |
| Ac-HWRGWV: acetylated version of the original HWRGWV (not fully specified (C-terminus); printed as Ac-HWRGWV; also: TOYOPEARL at residue 6) | – | – | – | – | IgG Purity ([3]; 0M NaCl in PBS binding buffer): 80%; IgG Yield ([3]; 0M NaCl in PBS binding buffer): 91%; IgG Purity [3, 6]: 80%; IgG Yield [3, 6]: 84%; IgG Purity [3, 5]: 84%; IgG Yield [3, 5]: 83% |
| HFRRHL [HFRRHL, reference compound] | 54% | 78% | good substrate for trypsin | – | – |
| HFcarbCitCitHL: variant of HFRRHL designed using carbamoyl-phenylalanine and citrulline (HF[Cit][Cit]HL-Toyopearl; not fully specified (residue 2); printed as HFcarbCitCitHL) | – | – | – | – | IgG Yield [4]: 53% |
| HWMetCitDWMetV: variant created by replacing glycine with aspartic acid | – | – | – | – | IgG Yield [4]: 47% |
| HWRGWV [HWRGWV, reference compound] | 36% | 72% | degraded by both trypsin and α-chymotrypsin; also recorded: ideal substrate for trypsin | degraded by both trypsin and α-chymotrypsin | – |
| HYFKFD [HYFKFD, reference compound] | 71% | 76% | almost immune to the attack of trypsin | – | – |

The next lines start with results.

| IgG Yield 3rd run (after trypsin) [1] | IgG Yield 2nd run (after α-chymotrypsin) [2] | resistance to trypsin (in words) [1] | resistance to α-chymotrypsin (in words) [2] | Compound | other results |
| --- | --- | --- | --- | --- | --- |
| 91% | 92% | – | – | Cc1ccc(C[C@H](NC(=O)[C@@H](N)Cc2c[nH]cn2)C(=O)N[C@@H](CCCNC(N)=O)C(=O)N[C@@H](CCCNC(N)=O)C(=O)N[C@@H](Cc2c[nH]cn2)C(=O)N[C@@H](CC(C)C)C(=O)O)cc1 [HFMetCitCitHL] (H-H[Phe(4-Me)][Cit][Cit]HL-OH; N-terminus and C-terminus assumed) | – |
| 71% | 73% | resistance towards one enzyme only | – | CC(C)[C@H](NC(=O)[C@H](Cc1c[nH]c2ccccc12)NC(=O)CNC(=O)[C@H](CCCNC(N)=O)NC(=O)[C@H](Cc1c[nH]c2ccccc12)NC(=O)[C@@H](N)Cc1c[nH]cn1)C(=O)O [HWCitGWV] (H-HW[Cit]GWV-OH; N-terminus and C-terminus assumed) | – |
| 90% | 91% | completely unaffected by either | completely unaffected by either | CC(C)[C@H](NC(=O)[C@H](Cc1cn(C)c2ccccc12)NC(=O)CNC(=O)[C@H](CCCNC(N)=O)NC(=O)[C@H](Cc1cn(C)c2ccccc12)NC(=O)[C@@H](N)Cc1c[nH]cn1)C(=O)O [HWMetCitGWMetV] (H-H[Trp(1-Me)][Cit]G[Trp(1-Me)]V-OH; N-terminus and C-terminus assumed) | – |
